Laboratory results from ChEMBL document CHEMBL1201862, “PubChem BioAssay data set” (2004).
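Test compounds were applied to cells in 96-well plates for 48 hours at 5 doses. The concentration for 50% growth inhibition is given as GI50.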 The source made the active and inactive calls. Cut-off read from the data, not from the text of the source: active = GI50 up to about 1.1 µM and inactive = higher.

Experiments:
Assay in all cases: NCI anticancer screen, dose series, 48 h
BT-549 = tested on: BT-549
ACHN = tested on: ACHN
HCT-15 = tested on: HCT-15
HOP-62 = tested on: HOP-62
MDA-MB-435 = tested on: MDA-MB-435
OVCAR-5 = tested on: OVCAR-5
Hs-578T = tested on: Hs-578T
U-251 = tested on: U-251
SW-620 = tested on: SW-620
LOX IMVI = tested on: LOX IMVI
NCI-H460 = tested on: NCI-H460
SF-295 = tested on: SF-295
RXF 393 = tested on: RXF 393
M14 = tested on: M14
K562 = tested on: K562
UO-31 = tested on: UO-31
IGROV-1 = tested on: IGROV-1
NCI-H522 = tested on: NCI-H522
NCI/ADR-RES = tested on: NCI/ADR-RES

SMILES	GI50 (BT-549)	GI50 (ACHN)	GI50 (HCT-15) [µM]	GI50 (HOP-62)	GI50 (MDA-MB-435)	GI50 (OVCAR-5)	GI50 (Hs-578T)	GI50 (U-251)	GI50 (SW-620)	GI50 (LOX IMVI)	GI50 (NCI-H460)	GI50 (SF-295)	GI50 (RXF 393)	GI50 (M14)	GI50 (K562)	GI50 (UO-31)	GI50 (IGROV-1)	GI50 (NCI-H522)	GI50 (NCI/ADR-RES)
O=P(O)(O)CN1CCNCCN(CP(=O)(O)O)CCN(CP(=O)(O)O)CCNCC1	> 100 µM (inactive)	> 100 µM (inactive)	> 100	> 100 µM (inactive)	> 100 µM (inactive)	> 100 µM (inactive)	> 100 µM (inactive)	> 100 µM (inactive)	> 100 µM (inactive)	91800 µM (inactive)	42400 µM (inactive)	> 100 µM (inactive)	> 100000 µM (inactive)	> 100 µM (inactive)	> 100 µM (inactive)	> 100 µM (inactive)	65900 µM (inactive)	> 100 µM (inactive)	> 100 µM (inactive)
CCCC(C)c1c(Cl)nc(Cl)nc1Cl (stereo not given)	1.99 µM (inactive)	4.21 µM (inactive)	7.38	8.36 µM (inactive)	3.75 µM (inactive)	21.2 µM (inactive)	9.38 µM (inactive)	9.38 µM (inactive)	4.23 µM (inactive)	1.66 µM (inactive)	11 µM (inactive)	18.5 µM (inactive)	10.6 µM (inactive)	1.71 µM (inactive)	3.37 µM (inactive)	19.5 µM (inactive)	14.7 µM (inactive)	1.13 µM (inactive)	33.4 µM (inactive)
Cc1cc(Cl)ccc1NC(=O)/C(CC(=O)CC(c1ccccc1)c1c(O)c2ccccc2oc1=O)=N\O (stereo not given)	> 100 µM (inactive)	> 100 µM (inactive)	> 100	> 100 µM (inactive)	> 100 µM (inactive)	> 100 µM (inactive)	> 100 µM (inactive)	> 100 µM (inactive)	> 100 µM (inactive)	> 100 µM (inactive)	> 100 µM (inactive)	> 100 µM (inactive)	> 100 µM (inactive)	> 100 µM (inactive)		65 µM (inactive)	> 100 µM (inactive)	> 100 µM (inactive)	> 100 µM (inactive)
N=c1c2c3n(c4c(=O)n(-c5ccccc5)c(=S)n(c(=O)n1-c1ccccc1)c24)CCCCC3	> 100 µM (inactive)	> 100 µM (inactive)	> 100	99.3 µM (inactive)	> 100 µM (inactive)	> 100 µM (inactive)	> 100 µM (inactive)	> 100 µM (inactive)	> 100 µM (inactive)	> 100 µM (inactive)	> 100 µM (inactive)	> 100 µM (inactive)	> 75.7 µM (inactive)	> 100 µM (inactive)		> 100 µM (inactive)	> 100 µM (inactive)	> 100 µM (inactive)	> 100 µM (inactive)
CCOP(=O)(OCC)/C(C#N)=C/c1cccn1C	> 100 µM (inactive)	> 100 µM (inactive)	> 100	> 100 µM (inactive)	> 100 µM (inactive)	> 100 µM (inactive)	> 100 µM (inactive)	> 100 µM (inactive)	> 100 µM (inactive)	> 100 µM (inactive)	> 100 µM (inactive)	> 100 µM (inactive)	> 100 µM (inactive)	> 100 µM (inactive)		41.6 µM (inactive)	> 100 µM (inactive)	> 100 µM (inactive)	> 100 µM (inactive)
O=C(Nc1nc(C23CC4CC(CC(C4)C2)C3)cs1)c1cc2cc([N+](=O)[O-])ccc2oc1=O	14.3 µM (inactive)	47.3 µM (inactive)	85.1	39.7 µM (inactive)	73.8 µM (inactive)	> 100 µM (inactive)	20.3 µM (inactive)	43 µM (inactive)	33.6 µM (inactive)	47.1 µM (inactive)	52.6 µM (inactive)	38.1 µM (inactive)	19.2 µM (inactive)		> 100 µM (inactive)	> 100 µM (inactive)	45.3 µM (inactive)	> 100 µM (inactive)	35.7 µM (inactive)
